Data published in US8212112B2, “Gene participating in low temperature germinability in rice and utilization of the same” (Hokuren Federation of Agricultural Cooperatives, priority 2007, dated 2012).

Columns and labels:
[1] = test system: rice seeds (Hayamasari, NILHYqLTG-3-1, Italica Livorno); test: germination tests under stress conditions (ABA, GA, NaCl, mannitol, temperature); set-up: species or system rice (O. sativa); details: for germination response at low NaCl / mannitol concentrations: concentrations lower than 250 mM mannitol and 150 mM NaCl
Protocol: To study the germinability under difference stress conditions, germination tests were carried out according to the method reported by Fujino et al. (2004). For low-temperature stress, seeds were placed on Petri dishes which were then loaded into an incubator. Solutions of plant hormones (ABA and GA), NaCl and mannitol at different concentrations were added to the Petri dishes which were then placed in an incubator. […] (A) is the germination at the optimal temperature of 25° C., (B) is the germination at 13° C., (C) is the sensitivity to NaCl (300 mM), (D) is the sensitivity to mannitol (500 mM), and (E) is the sensitivity to ABA ([…]). Examples of […]-3-1 (closed triangles), and Italica Livorno (open circles) are shown. The numerical values represent the mean±standard deviation (SD) for triplicates. […] In (A), the seeds were incubated in water at 25° C., 15° C., 13° C. and 10° C. In (B), GA (100, 200, 500 μM) was added at 15° C.; in (C), ABA ([…]) was added at 25° C.; in (D), NaCl (150, 250, 300 mM) was added; and in (E), mannitol (250, 500, 600 mM) was added, following which incubation was carried out. The open circles indicate controls. The low concentrations to high concentrations are indicated by, in order, open circles, triangles and squares. […] The open and closed symbols represent, respectively, the presence and absence of […]-3-1 and Italica Livorno are represented by, respectively, circles, triangles, and squares. […] Germination tests were carried out by the method reported by Fujino et al. (2004). For the low temperature stress, seeds on a Petri dish were placed in an incubator. Solutions of plant hormone (ABA and GA) and mannitol at different concentrations were added to the Petri dishes at this time before placing the dishes in the incubator.

[2] = test system: qLTG-3-1 gene; test: qLTG-3-1 gene expression by Northern blot and RT-PCR analysis; set-up: species or system rice (O. sativa); details: ABA, NaCl (250 mM), mannitol (500 mM)
Protocol: To carry out an analysis of gene expression, the total RNA was extracted from various organs of rice using RNAiso (TAKARA). The total RNA (0.5 μg) was reverse-transcripted with Rever Tra Ace (TOYOBO) having an Oligo(dT)20 primer, in accordance with the manufacturing guidelines. The PCR reaction was carried out using KOD-plus (TOYOBO). Each PCR reaction (10 μL) included 0.5 μL of cDNA template that had been diluted 5-fold. The specificity of each primer for the target gene was confirmed by PCR product sequencing. For the purpose of Northern blotting analysis, the total RNA (4 μg/sample) was isolated on 2.0% (w/v) agarose-modified formaldehyde gel containing 40 mM MOPS (pH 7.0), 10 mM Na-acetate, 1 mM EDTA and 2% (v/v) formaldehyde.
The RNA was transferred with 20×SSC to a positively charged nylon membrane (Roche Diagnostics). Hybridization and signal detection were carried out by, respectively, a DIG system and CDP-star (Roche Diagnostics). The PCR fragments from the primers 13-5U and 13-5L were used as the probes for Northern blot analysis. The primers and amplification conditions for RT-PCR analysis are shown subsequently in Table 5.
In this example, the expression of the qLTG-3-1 gene was studied. Using RNAiso (TAKARA), the total RNA was extracted from each organ of rice and treated with DNaseI (TAKARA). For Northern blot analysis, the total RNA (4 μg/sample) was separated on 2.0% (w/v) agarose-modified formaldehyde gel containing 40 mM of MOPS (pH 7.0), 10 mM of sodium acetate and 2% (v/v) formaldehyde.
The RNA was blotted with 20×SSC to a positively charged nylon membrane (Roche Diagnostics). Hybridization and signal detection were carried out with a DIG system and CDP-Star (Roche Diagnostics) according to the manufacturing guidelines. The PCR fragments obtained from the primers 13-5U and 13-5L were used as the probes for Northern blot analysis (Table 5).
In this example, the association between qLTG-3-1 expression and seed germination was examined. […]

SMILES | germination response in ABA treatment ([1]; ABA added at 25° C.) | qLTG-3-1 expression pattern in embryos under stress treatment [2] | effect of exogenous GA on seed germination ([1]; 15° C., Hayamasari, NILHYqLTG-3-1 and Italica Livorno) | germination response at low NaCl / mannitol concentrations [1]
CC1=CC(=O)CC(C)(C)C1(O)/C=C/C(C)=C\C(=O)O (stereo not shown) [ABA] | a delay in germination was observed in both parents | delay and suppression of qLTG-3-1 expression | – | –
C=C1C[C@]23C[C@@]1(O)CC[C@H]2[C@@]12C=C[C@H](O)[C@@](C)(C(=O)O1)[C@H]2[C@@H]3C(=O)O [GA] | – | – | did not promote seed germination in any of the genotypes | –
[Cl-].[Na+] [NaCl] | – | delay and suppression of qLTG-3-1 expression | – | all the varieties showed a delay in germination
OC[C@@H](O)[C@@H](O)[C@H](O)[C@H](O)CO [mannitol] | – | delay and suppression of qLTG-3-1 expression | – | all the varieties showed a delay in germination
